Experimental data reported in patent EP1242382B1, “TRICYCLIC PROTEIN KINASE INHIBITORS” (Wyeth, priority 1999, dated 2001).
Converted amounts (≈) assume the structure as drawn.

Assays:
A431 = assay: Inhibition of cancer cell growth as measured by cell number (Sulforhodamine B); type: cell-based; conditions: Homo sapiens, A-431; 48 hours exposure
Protocol: (§1) Human tumor cell lines are plated in 96-well plates (250 µl/well, 1-6 x 10^4 cells/ml) in RPMI 1640 medium, containing 5% FBS (Fetal Bovine Serum). Twenty four hours after plating, test compounds are added at various concentrations. After 48 hours exposure to test compounds, cells are fixed with trichloroacetic acid, and stained with Sulforhodamine B. After washing with trichloroacetic acid, bound dye is solubilized in 10 mM Tris base and optical density is determined using plate reader. Under conditions of the assay the optical density is proportional to the number of cells in the well. […] The test procedure is described in detail by Philip Skehan et. al, J. Natl. Canc. Inst., 82, 1107-1112 (1990). […] Information about some of the cell lines used in these test procedures is available from the American Type Tissue Collection: Cell Lines and Hybridomas, 1994 Reference Guide, 8th Edition.

MDA-MB-435 = assay: as above; type: cell-based; conditions: Homo sapiens, 48 hours exposure
Protocol: as §1

SW620 = assay: as above; type: cell-based; conditions: Homo sapiens, SW-620; 48 hours exposure
Protocol: as §1

SK-BR3 = assay: as above; type: cell-based; conditions: Homo sapiens, SK-BR-3; 48 hours exposure
Protocol: as §1

[1] = biological target: T1, EGF-R Kinase (recombinant enzyme) (Homo sapiens, UniProt P00533); assay: Inhibition of Epidermal Growth Factor Receptor Kinase (EGF-R) using recombinant enzyme; type: biochemical; conditions: RR-SRC peptide substrate, (a) = average of two tests
T1 construct: EGFR cDNA encoding amino acids 645 - 1186 preceded by Met-Ala-(His)6; made in house; host or cells: Sf9 insect cells, recombinant baculovirus vHcEGFR52
Protocol: Representative test compounds are evaluated in a standard pharmacological test procedure to measure their ability to inhibit the phosphorylation of the tyrosine residue of a peptide substrate catalyzed by the enzyme epidermal growth factor receptor kinase. […] The enzyme used in this assay is the His-tagged cytoplasmic domain of EGFR. […] Sf9 cells in 100 mm plates are infected at a multiplicity of infection of 10 pfu/cell and cells are harvested 48 h post infection. A cytoplasmic extract is prepared using 1% Triton X-100 and applied to Ni-NTA column. After washing the column with 20 mM imidazole, HcEGFR is eluted with 250 mM imidazole (in 50 mM Na2HPO4, pH 8.0, 300 mM NaCl). Fractions collected are dialyzed against 10 mM HEPES, pH 7.0, 50 mM NaCl, 10% glycerol, 1ug/mL antipain and leupeptin and 0.1 mM Pefabloc SC. The protein is frozen in dry ice/methanol and stored -70°C.
Test compounds are made into 10 mg/mL stock solutions in 100% dimethylsulfoxide (DMSO). Prior to experiment, stock solutions are diluted to 500 uM with 100% DMSO and then serially diluted to the desired concentration with HEPES buffer (30 mM HEPES pH 7.4).
For the enzyme reaction, 10 uL of each inhibitor (at various concentrations) are added to each well of a 96-well plate. To this is added 3 uL of enzyme (1:10 dilution in 10mM HEPES, pH 7.4 for final conc. of 1:120). This is allowed to sit for 10 min on ice and is followed by the addition of 5 ul peptide (80 uM final conc.), 10ul of 4X Buffer containing 50 mM HEPES (pH 7.4), 200 mM Na3VO4, 40mM MnCl2, 80 uM ATP, 0.25 uL ^33P-ATP (>2500 Ci/mmol; Amersham) and 12 uL H2O. The reaction is allowed to run for 90 min at room temperature and is followed by spotting the entire volume onto precut P81 filter papers. The filter discs are washed 2X with 0.5% phosphoric acid and radioactivity is measured using a liquid scintillation counter.
The % inhibition of the test compound is determined for at least three different concentrations and the IC50 value is evaluated from the dose response curve. […] CPM(control) is in units of counts per minute and is a number expressing the amount of radiolabled ATP (γ-^33P) incorporated into the RR-SRC peptide substrate by the enzyme after 90 minutes at room temperature in the absence of test compound as measured by liquid scintillation counting. The CPM values are corrected for the background counts produced by ATP in the absence of the enzymatic reaction.

p60^c-src (Src) = biological target: T2, p60^c-src (Src) (Homo sapiens, UniProt P12931); assay: Src kinase test procedure (Elisa format); type: biochemical
T2 construct: purchased Upstate Biotechnologies
Protocol: Inhibitors of p60^c-src (partially purified preparation purchased from Upstate Biotechnologies) tyrosine kinase activity are analyzed in an Elisa format. […] HRP-conjugated anti-phosphotyrosine is used to detect phosphorylated peptide via a color reaction. Conditions recommended by the manufacturer are employed.
Reaction conditions: Five microliter aliquots of each compound prepared fresh at the time of the assay are added as a solution in 10mM HEPES pH 7.5, 10% DMSO to the reaction well. Thirty-five microliters of reaction mix containing Src, buffer and peptide/bovine serum albumin mix are added to the compound wells and incubated at 30°C for 10 minutes (reaction buffer: 50mM TrisHCl pH 7.5, 10mM MgCl2, 0.1mM EGTA, 0.5mM Na3VO4). The reaction is started by addition of 10 microliters of ATP, incubated at 30°C for 1 hour, and stopped by addition of 20 microliters of 0.5M EDTA. The reaction mixture with the phosphorylated peptide is then transferred to a streptavidin-coated microtiter plate (provided in the kit) and allowed to bind for 20 minutes. Unbound peptide and reaction mixture is decanted and the plate is washed with PBS six times. Horseradish peroxidase-conjugated phosphotyrosine antibody supplied in the kit is incubated with the plate for one hour, then decanted. The plate is again washed with PBS six times.

[2] = system: Rat2 fibroblasts stably transformed with v-Src/Hu c-Src fusion gene; assay: Anchorage independent Src-transformed fibroblast proliferation test procedure; type: cell-based; conditions: Rattus norvegicus, the 3rd table c6, (a)-(d) = average of two to five runs, read-out: Src TF prolif IC50
Source text: Anchorage Independent Src-transformed Fibroblast Proliferation Test Procedure: Rat2 fibroblasts stably transformed with a plasmid containing a CMV promotor controlled v-Src/Hu c-Src fusion gene in which the catalytic domain of human c-Src is inserted in place of the v-Src catalytic domain in the v-Src gene are used for the measurement of src dependent suspension growth.

T2 sequence (P12931 whole entry): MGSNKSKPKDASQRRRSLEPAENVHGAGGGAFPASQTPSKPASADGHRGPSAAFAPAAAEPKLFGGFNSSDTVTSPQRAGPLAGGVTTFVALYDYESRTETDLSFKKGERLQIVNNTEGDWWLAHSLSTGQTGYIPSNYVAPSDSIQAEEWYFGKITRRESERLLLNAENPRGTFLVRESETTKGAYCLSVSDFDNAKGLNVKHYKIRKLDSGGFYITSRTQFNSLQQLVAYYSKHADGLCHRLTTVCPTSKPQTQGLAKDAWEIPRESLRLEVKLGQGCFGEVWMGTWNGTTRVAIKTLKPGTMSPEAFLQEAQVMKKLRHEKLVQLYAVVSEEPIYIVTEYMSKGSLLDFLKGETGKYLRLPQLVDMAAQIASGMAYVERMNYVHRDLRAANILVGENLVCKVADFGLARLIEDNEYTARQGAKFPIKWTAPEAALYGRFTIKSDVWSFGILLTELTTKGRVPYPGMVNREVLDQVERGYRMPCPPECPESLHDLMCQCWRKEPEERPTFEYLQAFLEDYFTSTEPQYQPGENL
T1 sequence (P00533 669-1210): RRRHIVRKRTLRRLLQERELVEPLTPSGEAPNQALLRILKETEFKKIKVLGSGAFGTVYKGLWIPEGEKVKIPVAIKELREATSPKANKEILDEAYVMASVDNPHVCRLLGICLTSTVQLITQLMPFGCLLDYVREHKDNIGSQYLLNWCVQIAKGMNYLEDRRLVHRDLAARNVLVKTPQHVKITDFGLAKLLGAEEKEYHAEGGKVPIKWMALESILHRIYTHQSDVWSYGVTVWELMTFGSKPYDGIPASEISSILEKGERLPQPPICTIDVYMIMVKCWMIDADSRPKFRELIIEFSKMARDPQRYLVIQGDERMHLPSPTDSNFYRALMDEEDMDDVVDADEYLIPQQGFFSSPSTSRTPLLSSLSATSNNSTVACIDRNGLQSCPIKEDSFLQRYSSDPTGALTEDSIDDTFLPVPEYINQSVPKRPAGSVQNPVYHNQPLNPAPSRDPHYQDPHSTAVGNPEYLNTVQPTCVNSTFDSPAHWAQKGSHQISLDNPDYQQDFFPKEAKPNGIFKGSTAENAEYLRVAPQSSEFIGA

Row | SMILES | IC50 (A431) | IC50 (MDA-MB-435) | IC50 (SW620) | IC50 (SK-BR3) | IC50 [1] | inhibition at 0.01 µM (p60^c-src (Src); dose 0.01 µM, read-out: Src %Inh) | inhibition at 10 µM (p60^c-src (Src); dose 10 µM, read-out: Src %Inh) | Src %Inh (p60^c-src (Src); dose 10 µM) | inhibition at 1 µM (p60^c-src (Src); dose 1 µM, read-out: Src %Inh) | IC50 [2]
1 | N#Cc1cnc2cc3ccccc3cc2c1Nc1ccc(F)c(Cl)c1 [Example 4, 4-(3-Chloro-4-fluoroanilino)benzo[g]quinoline-3-carbonitrile] | 0.332 µg/mL (≈ 0.955 µM) | 1.65 µg/mL (≈ 4.74 µM) | 1.08 µg/mL (≈ 3.11 µM) | 1.01 µg/mL (≈ 2.9 µM) | 5 nM | – | – | – | – | –
2 | N#Cc1cnc2cc3cc(O)c(O)cc3cc2c1Nc1ccc(Cl)cc1Cl [Example 15, 4-(2,4-Dichloroanilino)-7,8-dihydroxybenzo[g]quinoline-3-carbonitrile] | 0.58 µg/mL (≈ 1.46 µM) | 0.85 µg/mL (≈ 2.15 µM) | 0.38 µg/mL (≈ 0.959 µM) | > 5 µg/mL | – | 10% | – | – | – | –
3 | N#Cc1cnc2c(c1Nc1cccc(Br)c1)C=C1N=CN=C1C2 [Example 37, 8-(3-Bromo-phenylamino)imidazo[4,5-g]quinoline-7-carbonitrile] | 0.58 µg/mL (≈ 1.59 µM) | 3.48 µg/mL (≈ 9.56 µM) | 3.72 µg/mL (≈ 10.2 µM) | 0.6 µg/mL (≈ 1.65 µM) | 1.5 nM | – | – | – | – | –
4 | N#Cc1cnc2c(sc3ccccc32)c1Nc1cccc(Br)c1 [Example 65, 4-(3-Bromophenylamino)benzo[4,5]thieno[3,2-b]pyridine-3-carbonitrile] | > 5 µg/mL | > 5 µg/mL | > 5 µg/mL | > 5 µg/mL | 1000 nM | – | 7% | – | – | –
5 | N#Cc1cnc2c(oc3ccccc32)c1Nc1cccc(Br)c1 [Example 85, 4-(3-Bromophenylamino)benzo[4,5]furo[3,2-b]pyridine-3-carbonitrile] | > 5 µg/mL | > 5 µg/mL | > 5 µg/mL | > 5 µg/mL | 1000 nM | – | 53% | 44% | – | –
6 | N#Cc1cnc2c(sc3ccc([N+](=O)[O-])cc32)c1Nc1ccc(Cl)cc1Cl [Example 90, 4-(2,4-Dichloroanilino)-8-nitro[1]benzothieno[3,2-b]pyridine-3-carbonitrile] | 0.41 µg/mL (≈ 0.987 µM) | 0.46 µg/mL (≈ 1.11 µM) | 0.67 µg/mL (≈ 1.61 µM) | 0.59 µg/mL (≈ 1.42 µM) | – | – | – | – | 0% | –
7 | N#Cc1cnc2c(sc3ccc(N)cc32)c1Nc1cccc(Br)c1 [Example 92, 8-Amino-4-(3-bromoanilino)-[1]benzothieno[3,2-b]pyridine-3-carbonitrile] | > 5 µg/mL | > 5 µg/mL | > 5 µg/mL | > 5 µg/mL | – | – | – | – | – | –
8 | C=CC(=O)Nc1ccc2sc3c(Nc4cccc(Br)c4)c(C#N)cnc3c2c1 [Example 93, N-[4-(3-Bromoanilino)-3-cyano[1]benzothieno[3,2-b]pyridin-8-yl]acrylamide] | 0.838 µg/mL (≈ 1.86 µM) | 1.69 µg/mL (≈ 3.76 µM) | 1 µg/mL (≈ 2.23 µM) | 0.224 µg/mL (≈ 0.499 µM) | – | – | – | – | – | –
9 | C=CC(=O)Nc1cccc2c1sc1c(Nc3cccc(Br)c3)c(C#N)cnc12 [Example 94, N-[4-(3-Bromoanilino)-3-cyano[1]benzothieno[3,2-b]pyridin-6-yl]acrylamide] | 1.11 µg/mL (≈ 2.47 µM) | 3.9 µg/mL (≈ 8.68 µM) | > 5 µg/mL | 1.09 µg/mL (≈ 2.43 µM) | 100 nM | – | – | – | – | –
10 | COc1cc2cc3ncc(C#N)c(Nc4ccc(F)c(Cl)c4)c3cc2cc1OCCN1CCOCC1 [Example 212, 4-(3-Chloro-4-fluoroanilino)-8-methoxy-7-[2-(4-morpholinyl)ethoxy]benzo[g]quinoline-3-carbonitrile] | 0.76 µg/mL (≈ 1.5 µM) | – | 0.36 µg/mL (≈ 0.71 µM) | 0.04 µg/mL (≈ 0.0789 µM) | 1890 nM | – | – | – | – | > 10000 nM
